US20110152166A1, “METHOD OF MODULATION OF PROTEIN PHOSPHORYLATION-DEPENDENT CONFORMATIONAL TRANSITIONS WITH LOW MOLECULAR WEIGHT COMPOUNDS” (priority 2006, published 2011)

Columns and labels:
GST-S6K11-365 = assay: Surface plasmon resonance, S6K1 binding to tail peptides; design: species or system rat; conditions: K144N versus wt
Experimental: FIG. 13. The tail phosphate synergistically enhances the ability of the HM phosphate to activate S6K, dependent on the tail phosphate-binding site. (A) The kinase activity of purified kinase domain of S6K1 (S6K11-364), pre-phosphorylated by PDK1 in the activation loop, was determined in the presence of increasing concentrations of synthetic S6K1 tail peptide (residues 366-395) that was either non-phosphorylated (S371/T389), phosphorylated at Ser371 (pS371/T389) or Thr389 (5371/pT389) or phosphorylated at both sites (pS371/pT389). (B) The kinase activity of S6K11-364 and S6K11-364K144N, either pre-phosphorylated or not by PDK1, was determined in the absence or presence of 90 μM S371/pT389 or pS371/pT389. (C) pS371/pT389 S6K1 tail peptide was biotinylated and used to coat streptavidin Sensor Chips. The chips were thereafter analyzed for binding to purified GST-S6K11-365 or GST-56K11-365K144N. (A-C) Experiments were repeated at least 3 times and activity data (expressed as percent) are means±SD.
Sixty 146 cm^2 dishes with COST cells were co-transfected with pEBG-2T-S6K1-365 and pCMV5-myc-PDK1 (ratio 3:1) using calcium phosphate precipitation or with pEBG-2T-PKCζ and pCMV5-myc-PDK1 (ratio 3:1) using Fugene HD according to the manufacturers Instructions. Two days after transfection, the cells were harvested in lysis buffer as described above. […]

[1] = target: T1, Thr221-phosphorylated S6K11-364 (Rattus norvegicus, UniProt P67999); assay: S6K1 in vitro reconstitution kinase assay with tail peptides; type: biochemical
T1 construct: Purified HA-S6K1-364 was incubated with synthetic S6K1 (rat) tail peptides; made in house; host or cells: COS7, co-transfected with myc-PDK1; anti-HA immunoprecipitate
T1 sequence (P67999 24-387): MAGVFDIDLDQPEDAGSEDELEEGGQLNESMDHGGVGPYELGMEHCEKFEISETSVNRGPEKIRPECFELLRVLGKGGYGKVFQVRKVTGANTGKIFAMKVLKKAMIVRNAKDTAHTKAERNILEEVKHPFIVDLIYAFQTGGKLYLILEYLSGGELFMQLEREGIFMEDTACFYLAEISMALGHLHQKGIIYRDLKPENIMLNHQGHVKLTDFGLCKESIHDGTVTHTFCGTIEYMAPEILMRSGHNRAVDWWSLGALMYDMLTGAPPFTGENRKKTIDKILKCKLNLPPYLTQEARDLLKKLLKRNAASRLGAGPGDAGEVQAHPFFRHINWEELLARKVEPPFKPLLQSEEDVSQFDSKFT
Text: We established an in vitro reconstitution assay that could test a direct activation of the AGC kinase domain by the tail phosphate and characterize its cooperation with the HM and activation loop phosphates. The deletion mutant S6K11-364, which contains the kinase domain, but lacks the region of the tail containing the tail site and the HM as well as the C-terminal autoinhibitory domain, was expressed and purified from COS7 cells, either non-phosphorylated or phosphorylated at T221 in the activation loop, achieved by co-expression with PDK1. Purified S6K11-364 was then incubated with synthetic peptides of the S6K1 tail (residues 366-395: QTPVDS^371PDDSTLSESANQVFLGFT^389YVAPSV), which were either non-phosphorylated (S371/T389), phosphorylated at the tail site (pS371/T389), phosphorylated in the HM (S371/pT389) or phosphorylated at both sites (pS371/pT389). Subsequently, the kinase activity of S6K11-364 was determined.
Kinase assays for PKB, RSK, S6K, MSK were done as described previously (Frodin et al., 2002). […] After washing with 150 mM orthophosphoric acid, [^32P]phosphate incorporated into peptide substrate was quantified in an FLA-3000 apparatus (Fujifilm). […]

- decrease of binding of S6K11-365 to peptide by the K144N mutation (GST-S6K11-365): about 40%
- stimulation of kinase activity (in words) [1]: did not stimulate
Substance: pS371/T389: synthetic S6K1 tail peptide (residues 366-395) phosphorylated at the tail site
